Laboratory results: US6716968B2, “Apoptosis-related compounds and their use” (Peviva AB, priority 1997, dated 2004)
Ends that are not written are not given here.

test system: monoclonal antibody M30; assay: ELISA reactivity of synthetic peptides with monoclonal antibody M30; assay type: binding, mouse; conditions: SEQ ID NO: 1 set at 100
Description: These peptides having the amino acid sequences SEQ ID NO: 2 and 3 have been synthesized, and in an ELISA they bind to the mAb M 30 [relative activity: 100 for SEQ ID NO: 1; 11 for SEQ ID NO: 2; and 8.3 for SEQ ID NO: 3, respectively]. However, these two peptides are not expected to represent cleaved fragments of CK18 specific for apoptosis, since the mAb M 30 cannot bind to CK18 fragments until they expose the neo-epitope having the C-terminal sequence Ala Leu Asp.
The oligopeptides made in order to illustrate the invention were synthesized using the multipin peptide synthesis approach using polyethylene supports derivatized with an acid handle (Cf. Valerio, R. M., Bray, A. M. and Maeji, N. J. (1994) Multiple peptide synthesis on acid-labile handle derivatized polyethylene supports. Int. J. Peptide Protein Res. 44:158-165.). The synthesis was carried out on detachable pins grafted with hydroxyethylmethacrylate and functionalized with the trifluoroacetic acid-labile Rink amide forming handle. Peptides representing both the N and C terminal truncation series of the sequence EDFNLGDALD (SEQ ID NO:1) and other sequences were synthesized. Peptides were capped with biotin using the tetra peptide linker sequence—SGSG- or —SGSB- (B=βalanine), and attached to streptavidin coated plates in the enzyme-linked immunosorbent assay.
In order to characterize the MAb M30-epitope chemically, the M30was tested against a large number of synthetic peptides, that were especially made for this purpose.

Compared with EDFNLGDALD [SEQ ID NO: 1], EDGEDFNLGDALDSSNSMQT [SEQ ID NO: 2] is lower in “relative activity (binding to mAb M 30 in ELISA)” value: 100 for the first, 11 for the second.

In the case of LEDGEDFNLGDALDSSNS [SEQ ID NO: 3], the “relative activity (binding to mAb M 30 in ELISA)” value is reported as 8.3.

same assay, conditions: biotin-capped peptide attached to streptavidin coated plates, ELISA with MAb M30

Going from “FNLGDALD (OTHER INFORMATION: Description of Artificial Sequence: epitope from mammalian protein) [Peptide 402]” to “LEDGEDFNLGDAL (OTHER INFORMATION: Description of Artificial Sequence: epitope from mammalian protein) [Peptide 63]”, the “Absorbance at 405/492 nm” value falls from 0.27 to 0.05.

Going from “GEDFNLGDALD [302] (OTHER INFORMATION: Description of Artificial Sequence: epitope from mammalian protein) [Peptide 302]” to “DALD (OTHER INFORMATION: Description of Artificial Sequence: epitope from mammalian protein) [Peptide 406]”, the “Absorbance at 405/492 nm” value falls from 1.41 to 0.1.

First: GDALD (OTHER INFORMATION: Description of Artificial Sequence: epitope from mammalian protein) [Peptide 405]
Second: GEDFNLGDALD [47] (OTHER INFORMATION: Description of Artificial Sequence: epitope from mammalian protein) [Peptide 47]
The “Absorbance at 405/492 nm” value of the first is lower: 0.1 for the first, 1.23 for the second.

First: LEDGEDFNLGDALDS (OTHER INFORMATION: Description of Artificial Sequence: epitope from mammalian protein) [Peptide 61]
Second: EDGEDFNLGDALD (OTHER INFORMATION: Description of Artificial Sequence: epitope from mammalian protein) [Peptide 45]
The “Absorbance at 405/492 nm” value of the first is lower: 0.1 for the first, 1.05 for the second.

Going from “LGDALD (OTHER INFORMATION: Description of Artificial Sequence: epitope from mammalian protein) [Peptide 404]” to “DGEDFNLGDALD (OTHER INFORMATION: Description of Artificial Sequence: epitope from mammalian protein) [Peptide 46]”, the “Absorbance at 405/492 nm” value rises from 0.1 to 0.77.

Compared with “DFNLGDALD (OTHER INFORMATION: Description of Artificial Sequence: epitope from mammalian protein) [Peptide 401]”, “EDFNLGDALD (OTHER INFORMATION: Description of Artificial Sequence: epitope from mammalian protein) [Peptide 301]” is higher in “Absorbance at 405/492 nm” value: 0.62 for the first, 1.46 for the second.

With “NLGDALD (OTHER INFORMATION: Description of Artificial Sequence: epitope from mammalian protein) [Peptide 403]” the “Absorbance at 405/492 nm” value was 0.14.

same assay, conditions: truncation series of Table 1

With EDFNLGDALD [SEQ ID NO: 1] the “activity (reactivity with MAb M30) in words” value was “maximal activity”.
